# “And” between values parts separate entries of the source, which are not always exact repeats. Equal entries are not always repeated. “Also recorded” adds a separate entry of the source.
# Experiments:
# [1] = biological target: T1, recombinant human arginase 1 (Homo sapiens, UniProt P05089); assay: Arginase 1 inhibition, UPLC-MS measurement of ARG to ORN conversion in HEK293T cell lysate; conditions: for % of control activity at the corresponding [Inhibitor] ± SE: mean of two experiments;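 on all read-outs here: arginase 1–expressing HEK293T lysate at 0.05 mg/mL in pH 7.4 phosphate buffer, inhibitor preincubated 5 min with enzyme, then reaction started by adding ARG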
# T1 sequence (P05089 1-322): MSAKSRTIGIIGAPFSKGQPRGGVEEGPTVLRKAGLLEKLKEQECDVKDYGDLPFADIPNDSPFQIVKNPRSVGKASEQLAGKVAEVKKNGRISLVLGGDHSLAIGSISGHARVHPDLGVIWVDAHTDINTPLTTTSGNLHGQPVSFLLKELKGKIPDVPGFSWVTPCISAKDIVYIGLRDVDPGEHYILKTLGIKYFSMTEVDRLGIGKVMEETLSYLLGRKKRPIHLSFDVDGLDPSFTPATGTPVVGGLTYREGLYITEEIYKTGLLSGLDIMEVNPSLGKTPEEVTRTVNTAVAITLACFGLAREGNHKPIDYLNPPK
# arginase 1 [2] = assay: HOMOARG as a substrate for arginase 1, formation of LYS by UPLC-MS; format: biochemical, human; conditions: LYS limit of detection 0.3 µM
# arginase 1 [3] = conditions: arginase 1 inhibition; ref Ikemoto et al. 12; cited from earlier work
# [4] = biological target: T2, recombinant human arginase 2 (Homo sapiens, UniProt P78540); assay: Arginase 2 inhibition, UPLC-MS measurement of ARG to ORN conversion in HEK293T cell lysate; conditions: for % of control activity at the corresponding [Inhibitor] ± SE: mean of two experiments;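 on all read-outs here: HEK293T lysate carrying arginase 2 at 0.1 mg/mL in 0.05 M phosphate buffer pH 7.4, inhibitor preincubated with enzyme 5 min before ARG addition started the reaction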
# T2 sequence (P78540 23-354): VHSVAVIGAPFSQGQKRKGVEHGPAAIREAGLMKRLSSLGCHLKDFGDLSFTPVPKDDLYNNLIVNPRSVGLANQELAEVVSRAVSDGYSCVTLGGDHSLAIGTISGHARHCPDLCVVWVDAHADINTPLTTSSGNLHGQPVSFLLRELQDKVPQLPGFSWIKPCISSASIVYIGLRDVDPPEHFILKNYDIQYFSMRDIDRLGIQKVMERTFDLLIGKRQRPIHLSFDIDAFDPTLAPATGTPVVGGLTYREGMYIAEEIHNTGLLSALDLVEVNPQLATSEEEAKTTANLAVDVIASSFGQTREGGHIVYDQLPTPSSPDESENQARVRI
# Experimental: Following a 5-min pre-equilibration period reactions were initiated by the addition of the cell lysate solution in 0.05 M phosphate buffer to a pre-equilibrated aqueous solution of the substrate (ARG).
# The samples were vortex mixed (20 sec) and cooled in an ice/water bath for 10 min prior to centrifugation (5 min, 18,000 × g, room temperature) to precipitate the proteins. An aliquot of the supernatant layer was diluted with a 7:3 mobile phase A/mobile phase B solution into glass UPLC vial inserts.
# Incubation mixtures comprised of HEK293T cell lysate expressing arginase 1 (0.05 mg/mL) or arginase 2 (0.1 mg/mL), phosphate buffer (0.05 M, pH 7.4), inhibitor (0, 0.1, 1, 10, 100, 1000 or 10000 μM) and ARG (0.1, 2 or 3 mM). Following a 5-min pre-incubation of the potential inhibitor with arginase 1 or arginase 2, reactions were initiated by the addition of a pre-equilibrated solution of the substrate ARG.
# Sample were diluted 3:17 in mobile phase solution prior injection.
# arginase 2 [5] = assay: HOMOARG as a substrate for arginase 2, formation of LYS by UPLC-MS; format: biochemical, human; conditions: LYS limit of detection 0.3 µM
# arginase 2 [6] = conditions: arginase 2 inhibition; ref Colleluori and Ash 17; cited from earlier work
compound,measurement,setting,value
"N=C(N)NCCCC[C@H](N)C(=O)O [HOMOARG, homoarginine]",inhibition of arginase 1 activity,"[1]; ARG 100 µM (physiological), inhibitor 1 mM",30%
same,inhibition of arginase 1 activity,"[1]; ARG 100 µM (physiological), inhibitor 10 mM",76%
same,inhibition of arginase 1 activity,"[1]; ARG 3 mM (Km), inhibitor 1 mM",14%
same,inhibition of arginase 1 activity,"[1]; ARG 3 mM (Km), inhibitor 10 mM",50%
same,inhibitory effect on arginase 1 activity at physiological inhibitor concentrations,"[1]; LYS 100–1000 µM, HOMOARG 1–10 µM",no significant inhibitory effects
same,% of control activity at the corresponding [Inhibitor] ± SE,"[1]; arginase 1, ARG 100 µM, inhibitor 1 µM",112 ± 4%
same,% of control activity at the corresponding [Inhibitor] ± SE,"[1]; arginase 1, ARG 100 µM, inhibitor 10 µM",107 ± 4%
same,% of control activity at the corresponding [Inhibitor] ± SE,"[1]; arginase 1, ARG 100 µM, inhibitor 100 µM",85 ± 1%
same,% of control activity at the corresponding [Inhibitor] ± SE,"[1]; arginase 1, ARG 100 µM, inhibitor 1,000 µM",70 ± 1%
same,% of control activity at the corresponding [Inhibitor] ± SE,"[1]; arginase 1, ARG 100 µM, inhibitor 10,000 µM",24 ± 8%
same,% of control activity at the corresponding [Inhibitor] ± SE,"[1]; arginase 1, ARG 3 mM, inhibitor 1 µM",106 ± 7%
same,% of control activity at the corresponding [Inhibitor] ± SE,"[1]; arginase 1, ARG 3 mM, inhibitor 10 µM",110 ± 1%
same,% of control activity at the corresponding [Inhibitor] ± SE,"[1]; arginase 1, ARG 3 mM, inhibitor 100 µM",96 ± 6%
same,% of control activity at the corresponding [Inhibitor] ± SE,"[1]; arginase 1, ARG 3 mM, inhibitor 1,000 µM",86 ± 13%
same,% of control activity at the corresponding [Inhibitor] ± SE,"[1]; arginase 1, ARG 3 mM, inhibitor 10,000 µM",50 ± 1%
same,activity retained vs. control,"[1]; arginase 1, physiological HOMOARG concentrations (1–10 µM)",90%
same,inhibition model fitting the data,"[1]; arginase 1, poorly fit by uncompetitive, noncompetitive and mixed models",competitive
same,IC50,"[1]; read-out: IC50 ( ± SE), arginase 1, ARG 3 mM",8.14 ± 0.52 mM
same,Ki,"[1]; read-out: Ki ( ± SE), arginase 1, competitive inhibition model, ARG 0.6–15 mM",6.1 ± 0.5 mM
same,"substrate activity, formation of LYS from HOMOARG",arginase 1 [2],could not detect; also recorded: not a substrate
same,Ki,arginase 1 [3],5 to 5.2 mM
same,inhibition of arginase 2,"[4]; ARG 100 µM, inhibitor 1 mM",47%
same,inhibition of arginase 2,"[4]; ARG 100 µM, inhibitor 10 mM",88%
same,% of control activity at the corresponding [Inhibitor] ± SE,"[4]; arginase 2, ARG 100 µM, inhibitor 1 µM",107 ± 2%
same,% of control activity at the corresponding [Inhibitor] ± SE,"[4]; arginase 2, ARG 100 µM, inhibitor 10 µM",105 ± 5%
same,% of control activity at the corresponding [Inhibitor] ± SE,"[4]; arginase 2, ARG 100 µM, inhibitor 100 µM",100 ± 5%
same,% of control activity at the corresponding [Inhibitor] ± SE,"[4]; arginase 2, ARG 100 µM, inhibitor 1,000 µM",53 ± 4%
same,% of control activity at the corresponding [Inhibitor] ± SE,"[4]; arginase 2, ARG 100 µM, inhibitor 10,000 µM",12 ± 5%
same,% of control activity at the corresponding [Inhibitor] ± SE,"[4]; arginase 2, ARG 2 mM, inhibitor 1 µM",95 ± 3%
same,% of control activity at the corresponding [Inhibitor] ± SE,"[4]; arginase 2, ARG 2 mM, inhibitor 10 µM",106 ± 2%
same,% of control activity at the corresponding [Inhibitor] ± SE,"[4]; arginase 2, ARG 2 mM, inhibitor 100 µM",94 ± 2%
same,% of control activity at the corresponding [Inhibitor] ± SE,"[4]; arginase 2, ARG 2 mM, inhibitor 1,000 µM",72 ± 1%
same,% of control activity at the corresponding [Inhibitor] ± SE,"[4]; arginase 2, ARG 2 mM, inhibitor 10,000 µM",15 ± 8%
same,activity retained vs. control,"[4]; arginase 2, physiological HOMOARG concentrations (1–10 µM)",90%
same,inhibition model fitting the data,"[4]; arginase 2, poorly fit by uncompetitive, noncompetitive and mixed models",competitive
same,inhibition of arginase 2 at physiological inhibitor concentrations,[4]; physiological LYS and HOMOARG concentrations,no significant inhibition
same,IC50,"[4]; read-out: IC50 ( ± SE), arginase 2, ARG 2 mM",2.5 mM and 2.52 mM
same,Ki,"[4]; read-out: Ki ( ± SE), arginase 2, competitive inhibition model, ARG 0.5–8 mM",1.7 mM and 1.73 mM
same,"substrate activity, formation of LYS from HOMOARG",arginase 2 [5],could not detect; also recorded: not a substrate
same,Ki,arginase 2 [6],39 mM
